Experimental data published in patent publication US5593698A, “Suppression of proliferative response and induction of tolerance with polymorphic class II MHC allopeptides” (Autoimmune, Inc., priority 1993, dated 1997).

system: LEW rats; assay: Delayed Type Hypersensitivity (DTH) response after immunization with allopeptides; assay type: in vivo, rat; settings: LEW rats immunized in foot pad with 12.5 μg of one fragment and CFA; FIG. 5
Protocol: 4. Delayed Type Hypersensitivity (DTH) Response: LEW rats, used as responders, were immunized subcutaneously in the foot pad with 100 μg of the mixture of four RT1.B^u (50 μg) and four RT1.D^u (50 μg) peptides in complete Freund's adjuvant (12.5 μg of each peptide). These animals were challenged subcutaneously 2 weeks later in one ear with 10 μg of the peptide mixture and in the other ear with freshly prepared and irradiated (3000 Rads) splenocytes (10×10^6) from WF (RT1^u), syngeneic LEW (RT1^1), or third party BN (RT1^n). The DTH responses were measured with micrometer caliper (Mitutoyo, Japan) by a blinded observer as the delta ear thickness before and 2 days after the challenge (inches ×10^-2). Experiments were performed using 5 animals in each study group. P values were calculated using the student t-test.
These experiments investigate whether, in addition to polymorphism, the native location of the allopeptide, β-pleat vs. α-helix, may be an important determinant of immunogenicity and tolerogenicity in vivo. The immunogenicity and tolerogenicity of the individual allopeptide fragments were investigated. LEW rats, used as responders, were immunized subcutaneously in the foot pad with 12.5 μg of one of the four RT1.D (1-25, 20-44, 39-64, and 60-84) and four RT1.B (1-25, 20-44, 39-64, and 68-92) allopeptide fragments and CFA. DTH responses were then determined for each of the peptide fragments. […] In FIG. 5, "RT1D mix" and "RT1B mix" refers to animals immunized with a mixture of all four allopeptides. In FIG. 5 solid bars represent immunization with cells, hatched bars represent immunization with peptides. Bars represent the change in ear thickness in […] (mean±SEM).

Substance	Immunogenicity of individual allopeptide fragments by DTH response
RT1.D2: RT1.D allopeptide fragment 20-44, β-pleat (GTNRVRLLARLIYNREEYARFDSDV)	immunogenic
RT1.B1: RT1.B allopeptide fragment 1-25, β-pleat (QRLRRDFLVQFKPYCYFTNGTQRIR)	immunogenic
RT1.B2: RT1.B allopeptide fragment 20-44, β-pleat (GTQRIRNVIRYIYNREEYLRYDSDV)	immunogenic
RT1.D1: RT1.D allopeptide fragment 1-25, β-pleat (RDPTPRFLGYLKPECHFYNGTNRVR)	immunogenic
